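All cell lines were grown in 96-well plates and treated with compound for 48 hours. At the GI50, growth is halved.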 Activity calls are given as the source filed them. Rule as the data show it: active = GI50 up to about 1.1 µM and inactive = higher.
Tests used:
Test in all cases: NCI-60 cell line screen, 48 h
[1] = tested on: NCI-H460
[2] = tested on: IGROV-1
[3] = tested on: SK-OV-3
[4] = tested on: UACC-62
[5] = tested on: Hs-578T
[6] = tested on: OVCAR-3
[7] = tested on: HCT-15
[8] = tested on: PC-3
[9] = tested on: MDA-N
[10] = tested on: DU-145
[11] = tested on: SF-539
[12] = tested on: SK-MEL-2
[13] = tested on: SF-295
[14] = tested on: HCT-116
[15] = tested on: HL-60
[16] = tested on: NCI-H23
[17] = tested on: HCC 2998
[18] = tested on: BT-549
[19] = tested on: RPMI-8226
[20] = tested on: MOLT-4

| SMILES | GI50 [1] | GI50 [2] | GI50 [3] | GI50 [4] | GI50 [5] | GI50 [6] | GI50 [7] [µM] | GI50 [8] | GI50 [9] | GI50 [10] | GI50 [11] | GI50 [12] | GI50 [13] | GI50 [14] | GI50 [15] | GI50 [16] | GI50 [17] | GI50 [18] | GI50 [19] | GI50 [20] |
| --- | --- | --- | --- | --- | --- | --- | --- | --- | --- | --- | --- | --- | --- | --- | --- | --- | --- | --- | --- | --- |
| OCCn1cnc2c(SCc3ccccc3)ncnc21 | 19.6 µM (inactive) | > 100 µM (inactive) | > 100 µM (inactive) | > 100 µM (inactive) | 69.7 µM (inactive) | > 100 µM (inactive) | 11.9 | 61 µM (inactive) | > 100 µM (inactive) | > 100 µM (inactive) | 87.5 µM (inactive) | > 100 µM (inactive) | > 100 µM (inactive) | 48.8 µM (inactive) | 68.1 µM (inactive) | > 100 µM (inactive) | > 100 µM (inactive) | 95.7 µM (inactive) | 97.5 µM (inactive) |  |
| O=C(O)c1cc(C(=O)O)cc(N2C(=O)c3ccccc3C2=O)c1 | > 100 µM (inactive) | > 100 µM (inactive) | > 100 µM (inactive) | > 100 µM (inactive) | > 100 µM (inactive) | > 100 µM (inactive) | > 100 | > 100 µM (inactive) | > 100 µM (inactive) | > 100 µM (inactive) | > 100 µM (inactive) | > 100 µM (inactive) | > 100 µM (inactive) | > 100 µM (inactive) | > 100 µM (inactive) | > 100 µM (inactive) | > 100 µM (inactive) | > 100 µM (inactive) | > 100 µM (inactive) |  |
| Cn1c(-c2ccccc2)c2cc3nc4ccccc4nc3cc2c1-c1ccccc1 | 4.19 µM (inactive) | 17.5 µM (inactive) | 21.6 µM (inactive) | 11.7 µM (inactive) | 10.6 µM (inactive) | 20.4 µM (inactive) | 4.65 | 14.7 µM (inactive) | 5.87 µM (inactive) | 30.3 µM (inactive) | 17.4 µM (inactive) | 17.7 µM (inactive) | 14.4 µM (inactive) | 23.2 µM (inactive) | 20.1 µM (inactive) | 7.14 µM (inactive) |  | 21.6 µM (inactive) | 12.1 µM (inactive) | 21 µM (inactive) |
| CC(C)CCCC(C)[C@H]1CC[C@H]2[C@@H]3CC[C@H]4C[C@@H](CCC=C(c5cc(Cl)c(O)c(C(=O)OC(C)C)c5)c5cc(Cl)c(O)c(C(=O)OC(C)C)c5)CC[C@]4(C)[C@H]3CC[C@]12C (stereo partly specified) |  | > 50 µM (inactive) | > 50 µM (inactive) | > 50 µM (inactive) | > 50 µM (inactive) | > 50 µM (inactive) | > 50 | > 50 µM (inactive) | > 50 µM (inactive) | > 50 µM (inactive) | > 50 µM (inactive) | > 50 µM (inactive) | > 50 µM (inactive) | > 50 µM (inactive) | > 50 µM (inactive) | > 50 µM (inactive) | > 50 µM (inactive) | > 50 µM (inactive) | > 50 µM (inactive) | > 50 µM (inactive) |
| c1ccc2c(c1)nc1n2CNC1 | 54.6 µM (inactive) | > 100 µM (inactive) | > 100 µM (inactive) | > 100 µM (inactive) | > 100 µM (inactive) | > 100 µM (inactive) | > 100 | > 100 µM (inactive) | > 100 µM (inactive) | > 100 µM (inactive) | > 100 µM (inactive) | > 100 µM (inactive) | > 100 µM (inactive) | > 100 µM (inactive) | > 100 µM (inactive) | > 100 µM (inactive) | > 100 µM (inactive) | > 100 µM (inactive) | > 100 µM (inactive) | > 100 µM (inactive) |
| COc1ccc(C(CC2(c3ccc(OC)cc3)SCCCS2)NC(C)=O)cc1 (stereo unspecified) | 40.7 µM (inactive) | > 100 µM (inactive) | 40.8 µM (inactive) | > 100 µM (inactive) | 86.7 µM (inactive) | 45.6 µM (inactive) | 37 | 23.8 µM (inactive) | 61 µM (inactive) | 44.6 µM (inactive) | > 100 µM (inactive) | 41.3 µM (inactive) | 33.8 µM (inactive) | 56.1 µM (inactive) | 18.7 µM (inactive) | 29.4 µM (inactive) | 42.6 µM (inactive) | 41.9 µM (inactive) | 38.5 µM (inactive) | 30.1 µM (inactive) |
| COc1cc(OC)c(C2(c3c(OC(C)C)c(=O)c3=O)SCCCS2)cc1OC | > 100 µM (inactive) | > 100 µM (inactive) | > 100 µM (inactive) | > 100 µM (inactive) | > 100 µM (inactive) | > 100 µM (inactive) | > 100 | > 100 µM (inactive) | > 100 µM (inactive) | > 100 µM (inactive) | > 100 µM (inactive) | > 100 µM (inactive) | > 100 µM (inactive) | > 100 µM (inactive) | > 100 µM (inactive) | > 100 µM (inactive) | > 100 µM (inactive) | > 100 µM (inactive) | > 100 µM (inactive) |  |
| Cc1nc(-n2nc(-c3ccccc3)cc2-c2ccccc2)sc1C(=O)/C=C/c1ccc([N+](=O)[O-])cc1 | 25.2 µM (inactive) | 20.5 µM (inactive) | > 65.8 µM (inactive) | 19.4 µM (inactive) | 27.7 µM (inactive) | 10.4 µM (inactive) | 14 | 17.2 µM (inactive) | 19.2 µM (inactive) | 21.8 µM (inactive) | 11.2 µM (inactive) | 43.1 µM (inactive) | > 46.6 µM (inactive) | 12.7 µM (inactive) | 17.2 µM (inactive) | 18.4 µM (inactive) | 16.2 µM (inactive) | 13.2 µM (inactive) | 10.5 µM (inactive) | 10.9 µM (inactive) |
| Cc1c(-c2ccccc2)c(C#N)c2nnn(-c3ccc([N+](=O)[O-])cc3)c(=O)n12 | 22.5 µM (inactive) | 10.2 µM (inactive) | 23.4 µM (inactive) | 37.1 µM (inactive) | 14.1 µM (inactive) | 15.3 µM (inactive) | 20.7 | 3.48 µM (inactive) | 40.6 µM (inactive) | 5.38 µM (inactive) | 10.1 µM (inactive) | 8.91 µM (inactive) | 18.7 µM (inactive) | 24.5 µM (inactive) | 1.92 µM (inactive) | 21.3 µM (inactive) | 26.6 µM (inactive) | 26.9 µM (inactive) | 20.7 µM (inactive) |  |
| COc1cc(C(=O)Oc2ccc3c(c2)OCO3)cc(OC)c1OC | > 100 µM (inactive) | > 100 µM (inactive) | > 100 µM (inactive) | > 100 µM (inactive) | > 100 µM (inactive) | > 100 µM (inactive) | > 100 | > 100 µM (inactive) | > 100 µM (inactive) | > 100 µM (inactive) | > 100 µM (inactive) | > 100 µM (inactive) | > 100 µM (inactive) |  | > 100 µM (inactive) | > 100 µM (inactive) | > 100 µM (inactive) | > 100 µM (inactive) | > 100 µM (inactive) | > 100 µM (inactive) |
| Nc1nc2c(c(-c3ccc(F)cc3)n1)COC/C2=C\c1ccc(F)cc1 | 15.5 µM (inactive) | 40.6 µM (inactive) | > 100 µM (inactive) | 79.4 µM (inactive) | 33.4 µM (inactive) | 51.4 µM (inactive) | > 100 | 43.3 µM (inactive) | > 100 µM (inactive) | > 100 µM (inactive) | > 100 µM (inactive) | > 100 µM (inactive) | 35.5 µM (inactive) |  | 39.1 µM (inactive) | 45.6 µM (inactive) | 30.8 µM (inactive) | 43.5 µM (inactive) | 71.6 µM (inactive) | 51.2 µM (inactive) |
| O=P1(N(CCCl)CCCl)Oc2ccc(Cl)cc2Sc2c(ccc(Cl)c2Cl)O1 (stereo unspecified) | 4.79 µM (inactive) |  | 21.9 µM (inactive) | 17.1 µM (inactive) | 2.13 µM (inactive) | 4.95 µM (inactive) | 5.18 | 3.28 µM (inactive) | 7.91 µM (inactive) | 63.7 µM (inactive) | 23.3 µM (inactive) | 9.68 µM (inactive) | 3.18 µM (inactive) | 4.97 µM (inactive) | 4.1 µM (inactive) | 4.27 µM (inactive) | 16.5 µM (inactive) | 29.1 µM (inactive) | 5.02 µM (inactive) | 3.96 µM (inactive) |
| CC(=O)N1C(C(=O)NC2CCCCC2)CSC1c1ccccc1 (stereo unspecified) | > 100 µM (inactive) | > 100 µM (inactive) | > 100 µM (inactive) | > 100 µM (inactive) | > 100 µM (inactive) | > 100 µM (inactive) | > 100 | > 100 µM (inactive) | > 100 µM (inactive) | > 100 µM (inactive) | > 100 µM (inactive) | > 100 µM (inactive) | > 100 µM (inactive) | > 100 µM (inactive) | > 100 µM (inactive) | > 100 µM (inactive) | > 100 µM (inactive) | > 100 µM (inactive) | > 100 µM (inactive) | > 100 µM (inactive) |
| CCN(C(=O)N[C@H](C(=O)N[C@@H](C)C(=O)OC)C(C)C)c1ccccc1 | 24 µM (inactive) | 28.1 µM (inactive) | > 100 µM (inactive) | 22.1 µM (inactive) | 32.9 µM (inactive) | 51.2 µM (inactive) | 32.4 | 39.1 µM (inactive) | 34.2 µM (inactive) | > 100 µM (inactive) | 19.2 µM (inactive) | 28.8 µM (inactive) | 70 µM (inactive) | 22.5 µM (inactive) | 23.4 µM (inactive) | 64.3 µM (inactive) | 17.4 µM (inactive) | 60.4 µM (inactive) | 33.4 µM (inactive) | 65.2 µM (inactive) |

— ChEMBL document CHEMBL1201862, “PubChem BioAssay data set” (2004)
